Laboratory results published in patent publication US20130143927A1, “COMPOUNDS THAT MODULATE INTRACELLULAR CALCIUM” (CalciMedica, Inc., priority 2011, published 2013).

Tests used:
RBL-2H3 cells = assay: Fluorescence-based assay of store-operated calcium entry in RBL-2H3 cells; type: cell-based; conditions: Rattus norvegicus, store-operated calcium entry after thapsigargin, Fluo-4, 50% inhibition of Upslope
Procedure: B. Fluorescence-based Assay of Store-Operated Calcium Entry in RBL-2H3 Cells. Cells:
RBL-2H3 cells are obtained from ATCC and maintained in complete medium with 10% FBS at 37° C./6% CO2.
The day prior to performing the assay, RBL-2H3 cells are plated in 50 μL of complete medium in a 384 well plate. Cells are grown at 37° C./6% CO2 overnight and grow to 50-60% confluence by the next day. On the assay day, 1.5 μM Fluo-4-AM dye (Invitrogen) in complete medium is added and incubated for 1 hour at RT. Cells are washed twice in Ca^2+-free HBSS buffer and 35 μL Ca^2+-free HBSS buffer is added to each well. 10 μL of a test compound prepared in a Ca^2+-free HBSS solution at 4.5× of the desired concentration is added to a well and incubated for 5 minutes at RT. 10 μL of thapsigargin prepared in a Ca^2+-free HBSS solution at 5.5× of the desired concentration (5.5 uM) is added to each well and incubated for an additional 25 minutes. The initial baseline fluorescence signal is measured with a FLIPR^384 (Molecular Devices) plate reader. 5 μL of 12× calcium in HBSS (12 mM) is added and changes in cellular fluorescence are measured with the FLIPR^384 plate reader. In each well, the change in the fluorescent signal as a function of time due to calcium entry into the cell is determined by calculating the difference between the fluorescent signal measured 7 seconds after calcium addition and the initial baseline fluorescence signal at time zero (t=0). This parameter is designated Upslope. The IC50 value is calculated as the concentration at which 50% of the Upslope is inhibited.

[1] = molecular target: T1, recombinant human STIM1 and Orai1 (HEK-293 cells) (Homo sapiens, UniProt Q96D31); assay: Fluorescence-based assay of store-operated calcium entry in Orai1/STIM1 stable cells; type: cell-based; conditions: fluo-4, 50% inhibition of Peak-Basal signal
T1 construct: expressed in transfected cells; host or cells: HEK-293 cells stably expressing both proteins
Procedure: A. Fluorescence-based Assay of Store-Operated Calcium Entry in Orai1/STIM1 Stable Cells.
Cells stably expressing recombinant human STIM1 and Orai1 are generated by transfecting a human Orai1 expression plasmid (pcDNA3.1-Orai1-cmyc) into HEK-293 cells stably overexpressing human STIM1 (Roos et al. 2005 JCB 169(3): 435-445). Colonies of cells stably expressing both STIM1 and Orai1 proteins are selected and then subcloned by limiting dilution. Cells were cultured at 37° C./6% CO2 in complete medium with 10% FBS and appropriate selection markers.
The day prior to performing the assay Orai1/STIM1 stable cells are plated in 50 μL of complete medium at 90-95% confluence in a 384 well plate. Cells are grown at 37° C./6% CO2 overnight. On the day of the assay, 1.5 μM fluo-4-AM (Invitrogen) in complete medium is added to the cells, which are then incubated for 1 hour at RT. Cells are washed once in Ca^2+-free HBSS (Hank's buffered saline solution) and 35 μl of Ca^2+-free HBSS is added to each well. Test compounds are added to wells in a 10 μL Ca^2+-free HBSS solution, prepared at 4.5× the desired final concentration, and incubated for 30 minutes at RT. The initial baseline fluorescence signal is then measured with a FLIPR^384 (Molecular Devices) plate reader. Calcium entry is initiated by adding 5 μl of 10×CaCl2 (10 mM) in HBSS, and changes in cellular fluorescence are measured with the FLIPR^384 plate reader. In each well, the magnitude of the fluorescence signal as a result of calcium entry into the cell is determined by calculating the difference between the peak fluorescence signal measured after calcium addition and the initial baseline fluorescence signal (designated Peak-Basal). IC50 values are typically calculated as the concentration that inhibited 50% of the Peak-Basal signal.

T1 sequence (Q96D31 whole entry): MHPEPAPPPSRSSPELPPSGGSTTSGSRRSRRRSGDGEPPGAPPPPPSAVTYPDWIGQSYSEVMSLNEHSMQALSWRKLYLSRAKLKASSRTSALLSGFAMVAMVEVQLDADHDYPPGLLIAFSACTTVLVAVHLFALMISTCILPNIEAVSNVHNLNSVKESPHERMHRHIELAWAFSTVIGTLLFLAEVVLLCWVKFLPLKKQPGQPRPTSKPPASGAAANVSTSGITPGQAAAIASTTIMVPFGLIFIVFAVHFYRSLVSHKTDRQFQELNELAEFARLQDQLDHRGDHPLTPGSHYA

IC50 (RBL-2H3 cells) [nM] | IC50 [1] [nM] | Compound
< 600 | < 600 | Cn1nc(C(F)(F)F)cc1-c1cnc(NCc2ccccc2F)s1 [Compound 4, N-(2-fluorobenzyl)-5-(1-methyl-3-(trifluoromethyl)-1H-pyrazol-5-yl)thiazol-2-amine]
< 600 | 600 to 1200 | Cc1cc2c(cc1-c1cnc(NCc3c(F)cncc3F)s1)OC(F)(F)O2 [Compound 14, 5-(2,2-difluoro-6-methylbenzo[d][1,3]dioxol-5-yl)-N-((3,5-difluoropyridin-4-yl)methyl)thiazol-2-amine]
< 600 | < 600 | Cc1cc2c(cc1-c1cnc(OCc3c(F)cccc3F)s1)OC(F)(F)O2 [Compound 31]
< 600 | < 600 | Cn1nc(C(F)(F)F)cc1-c1cnc(OCc2c(F)cccc2F)s1 [Compound 32, 2-[(2,6-difluorophenyl)methoxy]-5-[1-methyl-3-(trifluoromethyl)pyrazol-5-yl]-1,3-thiazole]
> 1200 | 600 to 1200 | Cc1cc2c(cc1-c1ccc(NCc3c(F)cccc3F)s1)OC(F)(F)O2 [Compound 36, 5-(2,2-difluoro-6-methylbenzo[d][1,3]dioxol-5-yl)-N-(2,6-difluorobenzyl)thiophen-2-amine]

Second part, the compound before the results:

Compound | IC50 (RBL-2H3 cells) [nM] | IC50 [1] [nM]
Cn1nc(C(F)(F)F)cc1-c1cnc(NCc2c(F)cccc2F)s1 [Compound 2, N-(2,6-difluorobenzyl)-5-(1-methyl-3-(trifluoromethyl)-1H-pyrazol-5-yl)thiazol-2-amine] | < 600 | 600 to 1200
Cn1nc(C(F)(F)F)cc1-c1cnc(NCc2c(F)cncc2F)s1 [Compound 11, N-((3,5-difluoropyridin-4-yl)methyl)-5-(1-methyl-3-(trifluoromethyl)-1H-pyrazol-5-yl)thiazol-2-amine] | 600 to 1200 | > 1200
Cn1nc(C(F)(F)F)cc1-c1ccc(NCc2ccccc2F)s1 [Compound 34, N-(2-fluorobenzyl)-5-(1-methyl-3-(trifluoromethyl)-1H-pyrazol-5-yl)thiophen-2-amine] | 600 to 1200 | > 1200
Cn1nc(C(F)(F)F)cc1-c1ccc(NCc2c(F)cccc2F)s1 [Compound 35, N-(2,6-difluorobenzyl)-5-(1-methyl-3-(trifluoromethyl)-1H-pyrazol-5-yl)thiophen-2-amine] | < 600 | 600 to 1200
